Test results reported in patent US20180201654A1, “PEPTIDE INHIBITORS OF HAUSP DEUBIQUITINASE” (priority 2012, published 2018).
Read-outs that look alike come from different tables or passages of the source.

Experiments:
USP8 = molecular target: T1, USP8 (Homo sapiens, UniProt P40818); assay: In vitro deubiquitination assay with purified USP8; assay type: biochemical; settings: 0.25 μM purified USP8 pre-mixed with peptide for 5 min; K48- or K63-linked chains
T1 sequence (P40818 1-1118): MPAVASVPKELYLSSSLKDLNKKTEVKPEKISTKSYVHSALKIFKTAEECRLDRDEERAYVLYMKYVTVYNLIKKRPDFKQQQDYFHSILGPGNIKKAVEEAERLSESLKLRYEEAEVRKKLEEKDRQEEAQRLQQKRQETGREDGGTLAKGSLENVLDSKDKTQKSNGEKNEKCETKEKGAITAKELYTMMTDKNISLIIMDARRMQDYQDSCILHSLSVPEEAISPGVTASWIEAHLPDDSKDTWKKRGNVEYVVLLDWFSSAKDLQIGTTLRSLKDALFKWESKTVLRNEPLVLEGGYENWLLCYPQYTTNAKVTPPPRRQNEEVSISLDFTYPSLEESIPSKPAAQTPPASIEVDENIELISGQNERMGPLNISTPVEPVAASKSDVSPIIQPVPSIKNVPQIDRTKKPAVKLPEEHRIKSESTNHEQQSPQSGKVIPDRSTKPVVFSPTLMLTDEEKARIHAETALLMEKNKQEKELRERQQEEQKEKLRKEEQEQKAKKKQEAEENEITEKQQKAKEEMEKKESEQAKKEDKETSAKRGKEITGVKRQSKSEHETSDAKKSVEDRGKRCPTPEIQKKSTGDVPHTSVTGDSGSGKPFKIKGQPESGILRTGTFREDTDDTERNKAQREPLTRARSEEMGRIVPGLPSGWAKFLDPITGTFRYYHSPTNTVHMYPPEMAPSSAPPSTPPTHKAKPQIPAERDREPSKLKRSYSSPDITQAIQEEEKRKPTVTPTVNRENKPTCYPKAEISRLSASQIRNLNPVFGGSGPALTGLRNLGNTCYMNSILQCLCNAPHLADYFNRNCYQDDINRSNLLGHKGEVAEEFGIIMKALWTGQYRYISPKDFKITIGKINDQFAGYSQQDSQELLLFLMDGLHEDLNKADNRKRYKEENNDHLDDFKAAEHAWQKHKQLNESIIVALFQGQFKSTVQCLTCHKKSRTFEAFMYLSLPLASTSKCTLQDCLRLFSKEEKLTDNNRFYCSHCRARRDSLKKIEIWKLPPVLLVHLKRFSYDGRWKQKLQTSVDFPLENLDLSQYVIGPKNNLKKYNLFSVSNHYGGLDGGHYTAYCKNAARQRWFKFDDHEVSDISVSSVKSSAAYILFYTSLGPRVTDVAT

[1] = tested on: p53, p21, MDM2 and HAUSP levels in PEL cells; assay: Western blot of p53 and its transcriptional targets in PEL cells; assay type: cell-based, human; settings: peptide treatment
Description: (§1) FIG. 3a-3g. […] Data are culled from 3 independent experiments.

HAUSP (USP7) [2] = molecular target: T2, HAUSP (USP7) (Homo sapiens, UniProt Q93009); assay: In vitro DUB assay with ubiquitinated MDM2 as substrate; settings: HAUSP preincubated with increasing amounts of peptide; 1 h at 37° C.
HAUSP (USP7) [3] = molecular target: T2, HAUSP (USP7); settings: time-course, K48-Ub3-7 chains, 37° C.
[4] = molecular target: T3, HAUSP TRAF domain HAUSP^62-205 (Homo sapiens, UniProt Q93009); assay type: binding; design: All residues of HAUSP^62-205, with the exception of Asp^62, are included in the final model; hexahistidine tag (TEV-cleavable) (cleaved yes); made in house; host or cells: E. coli BL21 (DE3) RIPL; settings: for n: ITC binding stoichiometry, 150 mM NaCl, 10 mM HEPES (pH 7.0)
Method: FIG. 5. Typical isothermal titration calorimetric measurements of the interactions between the HAUSP TRAF domain and the vIRF4 protein derivatives or other peptides. Purified proteins and synthesized peptides were reconstituted in 150 mM NaCl and 10 mM HEPES (pH 7.0). The calorimetric assays were performed using a VPITC system. All experiments were carried out with a stirring speed of 300 rpm at 20° C., and the thermal power was recorded every 10 s. Data were analyzed using the ORIGIN software package (version 7.0). […] Each titration against the HAUSP TRAF domain is indicated in each panel.
(§2) Purified proteins and synthesized peptides (Peptron Inc., Deajeon, Korea) were reconstituted in 150 mM NaCl and 10 mM HEPES (pH 7.0). The calorimetric assays were performed using a VP-ITC system (MicroCal Inc., Northampton, Mass.). Samples were degassed by vacuum aspiration for 15 min prior to loading. All experiments were carried out with a stirring speed of 300 rpm at 20° C., and the thermal power was recorded every 10 s. Data were analyzed using the ORIGIN software package (version 7.0) supplied with the instrument. […] (SEQ ID NO: 6); EBNA1^435-449, […] (SEQ ID NO: 7); MDM2^137-152, […] […] (SEQ ID NO: 10). Each set of ITC experiments was repeated two or three times.

[5] = tested on: PEL cells carrying p53 (wt); assay: Apoptosis assay (Annexin V/PI, flow cytometry) in PEL cells; assay type: cell-based, human; settings: 10 μM
Method: as §1
The proportion of cells at the S phase was determined by measuring incorporation of BrdU and 7-amino-actionomycin D (ADD) into DNA. Cells were grown at a density of 5×10^6 cells/ml indicated periods with the treatment of either peptide or Nutlin-3a. The cells were pulse-labeled with 10 μM BrdU for 30 min. Cells were permeabilized, fixed and BrdU-, 7AAD-stained using the BrdU Flow Kit (BD Pharmingen) according to manufacturer's instructions. Stained cells were analyzed by flow cytometry to determine the cell-cycle distribution on a FACS Scan (BD FACSCanto™ II). Apoptosis was measured by dual-labeling with the Annexin V-FITC Apoptosis Detection kit I (BD biosciences-Pharmingen) according to the manufacturer's instruction and analyzed by Flow Jo software.
Shown is one representative experiment of three. It was shown that vif1/2 peptides cause cell death by apoptosis.
In this respect, BCBL-1 cells were treated with 100 μM of either vif1 or vif2 peptide for the indicated time periods and then subjected to Annexin V and PI staining, followed by FACS analysis. 10 μM Nutlin-3a was used as a positive control.

HAUSP TRAF domain = molecular target: T4, HAUSP TRAF domain (Homo sapiens, UniProt Q93009); assay type: binding
T4 construct: All residues of HAUSP^62-205, with the exception of Asp^62, are included in the final model; hexahistidine tag (TEV-cleavable) (cleaved yes); made in house; host or cells: E. coli BL21 (DE3) RIPL
Method: FIG. 9. Typical isothermal titration calorimetric measurements of the competitive binding of vIRF4 with TRAF domain against cellular substrates. […] Each competitive titration is indicated in the panel.
as §2
To further gauge the competitive nature of vIRF4 binding, the TRAF domain was incubated with an equal molar amount of vIRF4^153-216 in the presence of a 5-fold molar excess of MDM2^137-152, and the mixture was then analyzed by size exclusion chromatography.

[6] = molecular target: T3, HAUSP TRAF domain HAUSP^62-205; assay: Size exclusion chromatography of complex formation in excess MDM2^137-152; assay type: binding; design: hexahistidine tag (TEV-cleavable) (cleaved yes); made in house; host or cells: E. coli BL21 (DE3) RIPL; settings: in the presence of a 5-fold molar excess of MDM2^137-152
[7] = tested on: primary TKI-resistant Ph^+ and normal ALL cells; assay: Long-term cell culture of TKI-resistant ALL cells; assay type: cell-based, human; settings: single agent, FIG. 15
Description: To test whether vif1 and vif2 peptides have killing effect on relapse leukemia, this example chose two different karyotype relapse ALL cells: Ph^+BCR-ABL^T3151 and normal. The T3151 mutation is one of the common mechanism of escape and resistance against all kinds of tyrosine kinase inhibitors (TKIs). After treatment of these peptides into several different relapse ALL cells, this example performed Trypan blue staining to select dead cells in time dependent manner. […] This example next validated the effect of nilotinib/TAT-vif1 (or TAT-vif2) combination on primary TKI-resistance in Ph^+ and normal ALL during long-term cell culture.

T4 sequence (Q93009 62-205): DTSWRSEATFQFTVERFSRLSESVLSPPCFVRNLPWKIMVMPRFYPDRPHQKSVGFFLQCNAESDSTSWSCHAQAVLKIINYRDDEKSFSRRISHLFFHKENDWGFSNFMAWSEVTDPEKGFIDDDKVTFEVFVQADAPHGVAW
T3 sequence (Q93009 62-205): as above
T2 sequence (Q93009 whole entry): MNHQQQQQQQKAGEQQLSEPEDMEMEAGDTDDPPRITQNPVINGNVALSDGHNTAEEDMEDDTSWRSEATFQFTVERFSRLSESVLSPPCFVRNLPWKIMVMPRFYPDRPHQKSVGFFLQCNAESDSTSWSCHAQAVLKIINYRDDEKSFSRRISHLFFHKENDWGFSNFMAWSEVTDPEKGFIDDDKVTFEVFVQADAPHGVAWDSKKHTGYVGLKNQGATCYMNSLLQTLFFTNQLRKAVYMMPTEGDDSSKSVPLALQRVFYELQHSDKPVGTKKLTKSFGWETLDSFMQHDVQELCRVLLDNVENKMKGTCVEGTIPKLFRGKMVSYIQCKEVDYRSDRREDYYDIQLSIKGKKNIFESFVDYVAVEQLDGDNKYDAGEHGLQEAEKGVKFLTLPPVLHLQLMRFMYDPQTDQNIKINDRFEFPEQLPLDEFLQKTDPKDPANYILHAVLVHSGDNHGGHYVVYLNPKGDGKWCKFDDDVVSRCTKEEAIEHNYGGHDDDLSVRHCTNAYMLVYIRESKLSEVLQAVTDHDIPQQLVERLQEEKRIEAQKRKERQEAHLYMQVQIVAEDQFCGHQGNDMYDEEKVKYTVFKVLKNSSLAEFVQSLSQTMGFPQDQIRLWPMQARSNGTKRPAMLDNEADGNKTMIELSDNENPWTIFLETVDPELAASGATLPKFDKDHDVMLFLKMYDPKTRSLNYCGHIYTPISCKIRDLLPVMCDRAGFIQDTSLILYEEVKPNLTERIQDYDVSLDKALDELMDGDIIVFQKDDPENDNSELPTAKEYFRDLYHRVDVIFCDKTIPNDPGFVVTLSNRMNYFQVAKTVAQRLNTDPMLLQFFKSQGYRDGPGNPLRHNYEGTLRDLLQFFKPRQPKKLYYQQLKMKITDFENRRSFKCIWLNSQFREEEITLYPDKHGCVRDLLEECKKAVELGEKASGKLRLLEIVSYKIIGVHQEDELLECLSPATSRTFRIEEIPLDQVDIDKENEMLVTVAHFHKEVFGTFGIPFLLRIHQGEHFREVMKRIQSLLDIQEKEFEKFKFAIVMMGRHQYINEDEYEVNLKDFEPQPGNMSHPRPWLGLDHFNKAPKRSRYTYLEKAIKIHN

Row | Molecule | USP8 DUB activity (USP8) | HAUSP levels [1] | HAUSP DUB activity against ubiquitinated MDM2 (HAUSP (USP7) [2]) | HAUSP DUB activity, comparative kinetic analysis (HAUSP (USP7) [3]) | n ([4]; 20° C.) | TΔS ([4]; ITC, 20° C., pH 7.0) | ΔG ([4]; ITC, 20° C., pH 7.0) | ΔH ([4]; ITC, 20° C., pH 7.0) | also measured
1 | TRQVTQASSFTWRVPG (GTRQVTQASSFTWRVPG; Human herpesvirus 8) [vif2] | can not inhibit | Neither vif1 nor vif2 peptide treatment altered | efficiently blocked | completely suppressed |  |  |  |  | 
2 | C[C@H](NC(=O)[C@@H]1CCCN1C(=O)CNC(=O)[C@H](CCC(N)=O)NC(=O)[C@@H](N)CCC(=O)O)C(=O)N[C@@H](CC(=O)O)C(=O)N[C@@H](CC(=O)O)C(=O)N1CCC[C@H]1C(=O)NCC(=O)N[C@@H](CCC(=O)O)C(=O)NCC(=O)N1CCC[C@H]1C(=O)N[C@@H](CO)C(=O)N[C@H](C(=O)NCC(=O)O)[C@@H](C)O [EBNA1^435-449, reference compound] |  |  |  |  | 0.81 ± 0.01 | -8.69 kcal/mol | -8.48 kcal/mol | -17.17 ± 0.13 kcal/mol | Ka ([4]; ITC, 20° C., pH 7.0): 2.10 ± 0.15 10^6 M^−1
3 | COc1ccc(C2=N[C@@H](c3ccc(Cl)cc3)[C@@H](c3ccc(Cl)cc3)N2C(=O)N2CCNC(=O)C2)c(OC(C)C)c1 [Nutlin-3a] |  |  |  |  |  |  |  |  | cell death [5]: considerable cell death
4 | CC[C@H](C)[C@H](NC(=O)[C@H](Cc1c[nH]c2ccccc12)NC(=O)[C@@H](NC(=O)[C@@H](N)CO)C(C)C)C(=O)N1CCC[C@H]1C(=O)N[C@H](C(=O)N[C@@H](CC(N)=O)C(=O)N[C@@H](CCC(=O)O)C(=O)NCC(=O)N[C@@H](C)C(=O)N[C@@H](CO)C(=O)N[C@H](C(=O)N[C@@H](CO)C(=O)NCC(=O)N[C@@H](CCSC)C(=O)O)[C@@H](C)O)C(C)C [vIRF4^202-216] | can not inhibit | Neither vif1 nor vif2 peptide treatment altered | efficiently blocked | weakly attenuated | 0.84 ± 0.01 | -10.63 kcal/mol | -8.60 kcal/mol | -19.22 ± 0.05 kcal/mol | association constant (Kobs) (HAUSP TRAF domain; competitor titrated against MDM2^137-152-bound TRAF): 1.09e+07 M⁻¹; association constant (Kobs) (HAUSP TRAF domain; competitor titrated against p53^350-364-bound TRAF): 4.42e+07 M⁻¹; association constant (Kobs) (HAUSP TRAF domain; competitor titrated against p53^355-369-bound TRAF): 3.58e+07 M⁻¹; Kobs (HAUSP TRAF domain; titrated to MDM2^137-152-TRAF): 10.875 ± 1.308 10^6 M^−1; ΔHobs (HAUSP TRAF domain; titrated to MDM2^137-152-TRAF): -25.870 ± 0.240 kcal/mol; Kobs (HAUSP TRAF domain; titrated to p53^350-364-TRAF): 44.200 ± 4.200 10^6 M^−1; ΔHobs (HAUSP TRAF domain; titrated to p53^350-364-TRAF): -19.070 ± 0.194 kcal/mol; Kobs (HAUSP TRAF domain; titrated to p53^355-369-TRAF): 35.800 ± 3.400 10^6 M^−1; ΔHobs (HAUSP TRAF domain; titrated to p53^355-369-TRAF): -19.150 ± 0.203 kcal/mol; complex formation with the TRAF domain [6]: formed a stable complex; tighter binding to the TRAF domain compared to the peptides derived from MDM2 and p53 ([4]; ITC): 28-40 fold
5 | Cc1cn(-c2cc(NC(=O)c3ccc(C)c(Nc4nccc(-c5cccnc5)n4)c3)cc(C(F)(F)F)c2)cn1 [nilotinib] |  |  |  |  |  |  |  |  | response of refractory ALL cells in long-term culture [7]: did not achieve a therapeutic response
